Values joined by “and” are separate entries in the source; they are usually repeats but may differ in a detail not shown here. Equal values may be shown once. Toxic doses and inconclusive results are not listed. Cut-off read from the data, not from the text of the source: active = T/C of 150% or more; inactive = T/C below 125%.
System: L1210 leukemia ip in BDF1 mice, survival T/C
Assay: NCI In Vivo Anticancer Drug Screen. Data for tumor model L1210 Leukemia (intraperitoneal) in B6D2F1 (BDF1) mice
Settings: endpoint: mean survival time, higher = longer survival
Outline: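 Tumor was transplanted into mice, which were then dosed with test compound or vehicle alone. Survival was recorded for each group, and the treated figure was expressed relative to the control figure.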

[1] = dose: 25.0 mg/kg/injection, schedule: Q01DX009 (ip), vehicle: saline with Tween-80
[2] = dose: 100.0 mg/kg/injection, schedule: Q04DX003 (ip), vehicle: saline with Tween-80
[3] = dose: 50.0 mg/kg/injection, schedule: Q01DX009 (ip), vehicle: saline
[4] = dose: 75.0 mg/kg/injection, schedule: Q01DX009 (ip), vehicle: saline
[5] = dose: 100.0 mg/kg/injection, schedule: Q01DX009 (ip), vehicle: saline
[6] = dose: 200.0 mg/kg/injection, schedule: Q01DX009 (ip), vehicle: saline

Measured: T/C

[N-]=[N+]=NCC1OC(n2cnc3c(NC=O)ncnc32)CC1C(=O)O (centres undefined)
inactive: dose: 50.0 mg/kg/injection, schedule: Q01DX001 (ip), vehicle: carboxymethylcellulose (CMC) 109 % of control | dose: 100.0 mg/kg/injection, schedule: Q01DX001 (ip), vehicle: carboxymethylcellulose (CMC) 101 % of control | dose: 200.0 mg/kg/injection, schedule: Q01DX001 (ip), vehicle: carboxymethylcellulose (CMC) 114 % of control | dose: 400.0 mg/kg/injection, schedule: Q01DX001 (ip), vehicle: carboxymethylcellulose (CMC) 95 % of control

Cc1ccc(-n2c(=S)[nH]c3ccc(C)cc3c2=O)cc1
inactive: [1] 87 % of control | [2] 87 % of control

OCC1OC(n2cnc3c2nnn2ccnc32)C(O)C1O (centres undefined)
inactive: dose: 12.5 mg/kg/injection, schedule: Q01DX009 (ip), vehicle: saline 98 % of control | dose: 12.5 mg/kg/injection, schedule: Q04DX002 (ip), vehicle: saline 108 % of control | dose: 25.0 mg/kg/injection, schedule: Q01DX009 (ip), vehicle: saline 101 % of control | dose: 25.0 mg/kg/injection, schedule: Q04DX002 (ip), vehicle: saline 108 % of control | [3] 98 % of control and 107 % of control and 123 % of control | dose: 50.0 mg/kg/injection, schedule: Q04DX002 (ip), vehicle: saline 104 % of control | [4] 100 % of control | dose: 100.0 mg/kg/injection, schedule: Q01DX005 (ip), vehicle: saline 114 % of control | [5] 115 % of control | dose: 115.0 mg/kg/injection, schedule: Q01DX009 (ip), vehicle: saline 104 % of control | dose: 170.0 mg/kg/injection, schedule: Q01DX009 (ip), vehicle: saline 112 % of control | dose: 200.0 mg/kg/injection, schedule: Q01DX005 (ip), vehicle: saline 107 % of control | [6] 120 % of control

COC(=O)c1ccccc1NC(=O)C(Cl)Cl
inactive: dose: 100.0 mg/kg/injection, schedule: Q01DX009 (ip), vehicle: other 106 % of control | dose: 200.0 mg/kg/injection, schedule: Q01DX009 (ip), vehicle: other 93 % of control | dose: 400.0 mg/kg/injection, schedule: Q01DX009 (ip), vehicle: other 98 % of control

CC(=O)Nc1ccc(NC(=O)c2ccc(F)cc2)cc1
inactive: dose: 100.0 mg/kg/injection, schedule: Q01DX009 (ip), vehicle: gum acacia 91 % of control | dose: 200.0 mg/kg/injection, schedule: Q01DX009 (ip), vehicle: gum acacia 89 % of control | dose: 400.0 mg/kg/injection, schedule: Q01DX009 (ip), vehicle: gum acacia 102 % of control

Cc1noc(-n2c(C)ccc2C)c1C
inactive: dose: 100.0 mg/kg/injection, schedule: Q04DX003 (ip), vehicle: saline 97 % of control | dose: 200.0 mg/kg/injection, schedule: Q04DX003 (ip), vehicle: saline 100 % of control | dose: 400.0 mg/kg/injection, schedule: Q04DX003 (ip), vehicle: saline 95 % of control

CCOC(=O)C(=[N+]=[N-])C(F)(F)F
inactive: [3] 102 % of control | [5] 102 % of control | [6] 95 % of control

CCCCCCOC(=O)Nc1ccc(S(=O)(=O)NC2CCCCC2)cc1
inactive: dose: 100.0 mg/kg/injection, schedule: Q01DX001 (ip), vehicle: saline 94 % of control | dose: 200.0 mg/kg/injection, schedule: Q01DX001 (ip), vehicle: saline 90 % of control | dose: 400.0 mg/kg/injection, schedule: Q01DX001 (ip), vehicle: saline 95 % of control

Cc1cc(=O)c2c(C)cccc2[nH]1
inactive: dose: 6.25 mg/kg/injection, schedule: Q01DX009 (ip), vehicle: saline sonified 101 % of control | dose: 6.25 mg/kg/injection, schedule: Q04DX003 (ip), vehicle: saline with Tween-80 90 % of control | dose: 12.5 mg/kg/injection, schedule: Q01DX009 (ip), vehicle: saline sonified 99 % of control | dose: 25.0 mg/kg/injection, schedule: Q01DX009 (ip), vehicle: saline sonified 99 % of control | dose: 25.0 mg/kg/injection, schedule: Q04DX003 (ip), vehicle: saline with Tween-80 92 % of control

O=[N+]([O-])c1cccc(/C=N/NC(=S)Nc2ccccc2)c1
inactive: dose: 100.0 mg/kg/injection, schedule: Q01DX009 (ip), vehicle: Klucel (hydroxypropylcellulose) (HPC) 89 % of control | dose: 200.0 mg/kg/injection, schedule: Q01DX009 (ip), vehicle: Klucel (hydroxypropylcellulose) (HPC) 93 % of control

CC12CCCCC1C=CC(=O)C2 (centres undefined)
inactive: dose: 75.0 mg/kg/injection, schedule: Q01DX001 (ip), vehicle: other 89 % of control | dose: 150.0 mg/kg/injection, schedule: Q01DX001 (ip), vehicle: other 94 % of control

CCCCCCCC/C=C\CCCCCCCC(=O)NCCCOCCOCCOCC
inactive: [4] 97 % of control | dose: 75.0 mg/kg/injection, schedule: Q04DX003 (ip), vehicle: saline 94 % of control | dose: 150.0 mg/kg/injection, schedule: Q01DX009 (ip), vehicle: saline 101 % of control | dose: 150.0 mg/kg/injection, schedule: Q04DX003 (ip), vehicle: saline 90 % of control | dose: 300.0 mg/kg/injection, schedule: Q01DX009 (ip), vehicle: saline 87 % of control | dose: 300.0 mg/kg/injection, schedule: Q04DX003 (ip), vehicle: saline 95 % of control

COc1cccc(NC(=O)CCC(=O)O)c1
inactive: [1] 105 % of control | dose: 50.0 mg/kg/injection, schedule: Q01DX009 (ip), vehicle: saline with Tween-80 100 % of control | dose: 50.0 mg/kg/injection, schedule: Q04DX003 (ip), vehicle: saline with Tween-80 98 % of control | [2] 103 % of control | dose: 200.0 mg/kg/injection, schedule: Q01DX009 (ip), vehicle: saline with Tween-80 88 % of control | dose: 200.0 mg/kg/injection, schedule: Q04DX003 (ip), vehicle: saline with Tween-80 97 % of control | dose: 400.0 mg/kg/injection, schedule: Q01DX009 (ip), vehicle: saline with Tween-80 95 % of control | dose: 400.0 mg/kg/injection, schedule: Q04DX003 (ip), vehicle: saline with Tween-80 103 % of control

CCCCc1c(C)nc(N)[nH]c1=O
inactive: dose: 100.0 mg/kg/injection, schedule: Q04DX002 (ip), vehicle: Klucel (hydroxypropylcellulose) (HPC) 104 % of control | dose: 200.0 mg/kg/injection, schedule: Q04DX002 (ip), vehicle: Klucel (hydroxypropylcellulose) (HPC) 100 % of control | dose: 400.0 mg/kg/injection, schedule: Q04DX002 (ip), vehicle: Klucel (hydroxypropylcellulose) (HPC) 100 % of control

O=c1ccccc(Br)c1O
inactive: dose: 100.0 mg/kg/injection, schedule: Q04DX003 (ip), vehicle: acetone 100 % of control | dose: 200.0 mg/kg/injection, schedule: Q04DX003 (ip), vehicle: acetone 98 % of control

CCc1cc2c(cc1C(=O)CCN1CCCC1)C(C)(C)CCC2(C)C
inactive: dose: 25.0 mg/kg/injection, schedule: Q04DX002 (ip), vehicle: saline with Tween-80 90 % of control | dose: 50.0 mg/kg/injection, schedule: Q04DX002 (ip), vehicle: saline with Tween-80 90 % of control | dose: 100.0 mg/kg/injection, schedule: Q04DX002 (ip), vehicle: saline with Tween-80 90 % of control

Cc1cc(N(C)C)nc(N(C)C)n1
inactive: dose: 100.0 mg/kg/injection, schedule: Q01DX001 (ip), vehicle: other 93 % of control | dose: 100.0 mg/kg/injection, schedule: Q04DX003 (ip), vehicle: other 103 % of control | dose: 200.0 mg/kg/injection, schedule: Q01DX001 (ip), vehicle: other 101 % of control | dose: 200.0 mg/kg/injection, schedule: Q04DX003 (ip), vehicle: other 97 % of control | dose: 250.0 mg/kg/injection, schedule: Q01DX Z (ip), vehicle: methylcellulose (MC) 100 % of control | dose: 375.0 mg/kg/injection, schedule: Q01DX Z (ip), vehicle: methylcellulose (MC) 94 % of control | dose: 400.0 mg/kg/injection, schedule: Q01DX001 (ip), vehicle: other 91 % of control | dose: 400.0 mg/kg/injection, schedule: Q04DX003 (ip), vehicle: other 102 % of control | dose: 500.0 mg/kg/injection, schedule: Q01DX Z (ip), vehicle: methylcellulose (MC) 96 % of control
